From patent US10596263B2, “Pazopanib formulation” (Novartis AG, priority 2011, dated 2020)

Tests used:
[1] = In-vivo exposure of the drug after micronization; conditions: micronized active substance
Excerpt: The pazopanib active substance is preferably micronized. […] Particle size reduction also helps to improve the mouth-feel of the suspension. Micronization may be achieved using techniques known in the art. According to one embodiment, particle size reduction is achieved through the use of fluid energy jet mill wherein the powder gets suspended in a high velocity nitrogen gas stream in a milling chamber, and particle size is reduced due to the principle of impact and attrition due to the high velocity collisions between particles suspended within the nitrogen gas stream, causing them to break down into smaller particles. Centrifugal force causes the larger, heavy particles to separate from smaller, lighter particles. The small particles are dragged by the escaping fluid stream towards the center of the mill, where they are discharged into filter bags, and the material is then collected into drums. The large particles are thrown outward where they recirculate and re-collide, causing them to breakdown. According to one embodiment, the resulting particle size distribution of pazopanib hydrochloride particles is >90% between 0.61 and 10.0 microns. In another embodiment, at least 50% is from 1 to 10 microns, preferably from 1.1 to 3.9 microns. In another embodiment 90% is 20 microns or less, preferably 10 microns or less.

[2] = Solubility of pazopanib in water at various pH; assay type: physicochemical
Excerpt: FIG. 2 is a graph showing the solubility of pazopanib in water at various pH.
Based on the pH-solubility curve of pazopanib (FIG. 2) the solubility profile between pH 3 and pH 6 is on a steep slope and therefore, small changes in pH will have a large change in solubility. At the lower pH levels the citrate and monohydrate salts predominate and at the higher pH the freebase predominates. When the suspension is buffered at pH 3.5 and below with citric acid and sodium phosphate buffering system, the drug substance in the suspension changes form to the hydrate and Citrate salts in less than 17 days after reconstitution under refrigerated storage condition 5° C. […] Therefore, the compositions of this invention are such that when reconstituted they preferably provide a suspension with a pH from 2.5 to 4.5, preferably a pH of from 3.0 to 4.2, and most preferably a pH of from 3.5 to 4.0.

[3] = Physical stability (form conversion) of reconstituted pazopanib suspension, monitored by XRPD; assay type: physicochemical
Protocol: Regarding the use of buffers, physical stability of the invented suspension was determined to be a function of pH, temperature, buffering system, and buffer strength as shown in Table I (some repeat runs are shown).
By removing the sodium citrate from the buffering system the rate of formation of the citrate salt under both refrigerated and long term storage conditions was impeded. Suspensions containing citric acid and sodium phosphate buffering system at pH 4.0 with buffer strength from 0.05 to 0.20 M and no PVP were all stable up to 43 days at refrigerated conditions. At long term storage conditions of 25° C./60% RH form conversion was detected at day 7 but the citrate salt was first observed on day 20.
Table 4 depicts a qualitatively similar formulation to the exemplary formulation, Example 1. Both formulations were manufactured using the same unit operations and processing parameters. […] At long term storage conditions of 25° C./60% RH or room temperature the physical stability of the comparative suspension monitored by XRPD indicated a mixture of forms were detected at day 7 compared with the exemplary formulation (Table 3) that was stability up to 34 days. It was determined that the use of citric acid and trisodium citrate buffer system speed the conversion to the pazopanib citrate salt. It is believed that this is driven by the smaller buffering capacity of citric acid and trisodium citrate buffer.

[4] = Citric Acid/Sodium Citrate 0.2M, initial pH 4.0, PVP 0% wt/wt, 5° C./Ambient
[5] = Citric Acid/Sodium Citrate 0.5M, initial pH 4.0, PVP 0% wt/wt, 25° C./60% RH
[6] = Citric Acid/Sodium Phosphate 0.1M, initial pH 4.0, PVP 0% wt/wt, 25° C./60% RH
[7] = Citric Acid/Sodium Phosphate 0.2M, initial pH 4.0, PVP 0% wt/wt, 25° C./60% RH
[8] = citric acid and sodium phosphate buffer, pH 4.0, 0.05 to 0.20 M, no PVP, 25° C./60% RH

SMILES: Cc1ccc(Nc2nccc(N(C)c3ccc4c(C)n(C)nc4c3)n2)cc1S(N)(=O)=O [pazopanib, 5-[[4-[(2,3-dimethyl-2H-indazol-6-yl)methylamino]-2-pyrimidinyl]amino]-2-methylbenzenesulfonamide]
- in-vivo exposure, effect of micronization [1]: enhance
- pH-solubility profile ([2]; between pH 3 and pH 6, water (FIG. 2)): steep slope
- solubility, effect of micronization ([2]; micronized active substance): enhance
- Physical Stability ([3]; Citric Acid/Sodium Citrate 0.05M, initial pH 4.0, PVP 0% wt/wt, 5° C./Ambient): 43 days
- Physical Stability: conversion to citrate salt by day [3, 4]: by day 42
- Physical Stability: mixture of forms by day [3, 4]: day 21;
- Physical Stability: conversion to citrate salt by day ([3]; Citric Acid/Sodium Citrate 0.2M, initial pH 4.0, PVP 0% wt/wt, 25° C./60% RH): day 7
- Physical Stability: conversion to citrate salt by day ([3]; Citric Acid/Sodium Citrate 0.5M, initial pH 4.0, PVP 0% wt/wt, 5° C./Ambient): day 14
- Physical Stability: conversion to citrate salt by day [3, 5]: day 14
- Physical Stability: mixture of forms at [3, 5]: initial;
- Physical Stability ([3]; Citric Acid/Sodium Phosphate 0.05M, initial pH 4.0, PVP 0% wt/wt, 5° C./Ambient): 43 days
- Physical Stability ([3]; Citric Acid/Sodium Phosphate 0.05M, initial pH 4.0, PVP 0% wt/wt, 25° C./60% RH): At least 7 Days;
- Physical Stability ([3]; Citric Acid/Sodium Phosphate 0.1M, initial pH 4.0, PVP 0% wt/wt, 5° C./Ambient): 43 days
- Physical Stability [3, 6]: At least 7 Days;
- Physical Stability: mixture of forms by day [3, 6]: day 20
- Physical Stability: conversion to citrate salt by day ([3]; Citric Acid/Sodium Phosphate 0.2M, initial pH 3.0, PVP 0% wt/wt, 5° C./Ambient): day 17
- Physical Stability: conversion to citrate salt by day ([3]; Citric Acid/Sodium Phosphate 0.2M, initial pH 3.2, PVP 0% wt/wt, 5° C./Ambient): day 17
- Physical Stability: conversion to citrate salt by day ([3]; Citric Acid/Sodium Phosphate 0.2M, initial pH 3.5, PVP 0% wt/wt, 5° C./Ambient): day 17
- Physical Stability ([3]; Citric Acid/Sodium Phosphate 0.2M, initial pH 4.0, PVP 0% wt/wt, 5° C./Ambient): 43 days
- Physical Stability [3, 7]: At least 7 Days;
- Physical Stability: conversion to citrate salt by day [3, 7]: day 20
- Physical Stability ([3]; PVP added, citric acid and sodium phosphate, pH 4.0, buffering strength 0.05 M): at least 20 days
- pazopanib monohydrochloride salt maintained until ([3]; PVP levels between 3.8 to 7.4% w/w, inclusive, citric acid and sodium phosphate, pH 4.0, 0.05 M): 34 days
- drug substance changes form to the hydrate and Citrate salts after reconstitution ([3]; buffered at pH 3.5 and below, citric acid and sodium phosphate, refrigerated 5° C.): less than 17 days
- form conversion started on day ([3]; citric acid and sodium citrate buffer, pH 4.0, buffer strength 0.05 M to 0.5 M, 5° C.): ≥ 14 days
- Conversion of pazopanib to the citrate salt observed at ([3]; citric acid and sodium citrate buffer, pH 4.0, buffer strength 0.05 M to 0.5 M, 25° C./60% RH): initial to day 7
- citrate salt first observed on day [3, 8]: 20 days
- form conversion detected at day [3, 8]: 7 days
- stable (physical stability of suspension) ([3]; citric acid and sodium phosphate buffer, pH 4.0, 0.05 to 0.20 M, no PVP, refrigerated conditions): up to 43 days
